Measurements taken from article PMC6337391 (Molecules, 2019).

Experiments:
[1] = Reducing activity with the stable radical DPPH
Description: The chalcones were studied for the antioxidant activity (reducing activity RA%) by the use of the stable free radical 2,2-diphenyl-1-picrylhydrazyl radical (DPPH) at concentrations 0.05 mM after 20 and 60 min (Table 2). In this procedure, the dominant chemical reaction involved is the reduction of the DPPH radical by single electron transfer from the antioxidant. […] For the sake of comparison, we measured the RA% values for the intermediate double ethers d which were included in the Table 2.
To a solution of DPPH (final concentration 0.05 mM) in absolute ethanol an equal volume of the compounds solution in DMSO (stock solution 10 mM) dissolved in ethanol was added. Absolute ethanol was used as a control. The concentrations of the solutions of the compounds were 0.05 and 0.1 mM. The absorbance was recorded at 517 nm at room temperature after 20 and 60 min [29] (Table 2).

[2] = system: L929 mouse fibroblasts cells; assay: Cytotoxicity, propidium iodide fluorescence method; format: cell-based; conditions: 24-h incubation
Description: The cytotoxicity of the synthesized derivatives against L929 mouse fibroblasts cells was determined using the propidium iodide (PI) fluorescence method in the presence of different concentrations (1–100 μM) of these compounds. The results are presented in Table 4 in the form of the % cell survival values as PI% for the examined compounds. […] Chalcones c7, c8, c11, and c12 follow.
L929 mouse fibroblasts cells were cultured in EMEM supplemented with 10% horse serum, 2 mM L-glutamine, 1 mM sodium pyruvate, 0.1 mM nonessential amino acids, 1.5 g/L sodium bicarbonate, and 100 μg/mL penicillin–streptomycin at 37 °C in a humidified atmosphere with 5% CO2. L929 cells were plated into 24-well plates at a density […] and allowed to attach and grow for 24 h. The supernatant in each well then replaced with medium containing various concentrations (1, 10, 20, 50 and 100 μM) of compounds a5–12, c5–12, di, and dii–dvi, which presented the more interesting results in the in vitro experiments. After 24-h incubation, the supernatant was removed and the cells were washed with PBS. The cells were detached with 0.25% trypsin, transferred to FACS tubes, and then centrifuged (1600 rpm for 5 min) and the pellet washed with PBS. After washing, the cells in the pellet were incubated with 5 μL propidium iodide (PI) solution (1 mg/mL) for 1 min. The PI fluorescence (cell death) was determined with flow cytometry, FACS Calibur, Coulter Epics XL-MCL (Beckman, Inc., Mount Holly, NJ, USA). The analysis of flow cytometry data was performed with the WinMDI analysis program (Table 4).

[3] = ABTS•+ decolorization assay
Description: The decolorization assay is used to evaluate the antioxidant activity. The ABTS^•+ cationic radical is derived from the direct oxidation of ABTS by potassium persulfate. No involvement of an intermediary radical is observed. The addition of electron-donating antioxidants reduce ABTS^•+.
Stock solutions of the tested compounds in DMSO (10 mM) were diluted. […] aliquots of each sample were added into the ABTS·^+ solution and the absorbance was recorded at room temperature. Trolox was used as a standard.

[4] = Lipophilicity as RM values by RP-TLC; format: physicochemical; set-up: key: RM = log[(1/Rf) − 1]; conditions: methanol/water 70/30, SD < 10%
Text: It is well-documented and discussed in the literature that lipophilicity is a very significant physicochemical property which may critically affect distribution, bioavailability, metabolic activity and elimination, all the useful characteristics for the kinetics of biologically active compounds. Thus, we attempted to determine experimentally the lipophilicity of the synthesized compounds from the RPTLC method as RM values. The method is considered to be a reliable, fast and convenient method for expressing lipophilicity. Moreover, many calculated methods were used in order to predict the logP value.
Reversed phase TLC (RP-TLC) was performed on silica gel plates impregnated with 5% (v/v) liquid paraffin in light petroleum ether. The mobile phase was a methanol/water mixture (70/30, v/v). The plates were developed in closed chromatography tanks saturated with the mobile phase at 24 °C. Spots were detected under UV light. Five individual measurements of Rf values were recorded and used for the determination of RM using the equation RM = log [(1/Rf) − 1]. (Table 3).

soybean lipoxygenase = target: T1, soybean lipoxygenase (Glycine max, UniProt P08170); assay: biochemical; format: biochemical; conditions: soybean LOX, 100 μM
T1 sequence (P08170 1-839): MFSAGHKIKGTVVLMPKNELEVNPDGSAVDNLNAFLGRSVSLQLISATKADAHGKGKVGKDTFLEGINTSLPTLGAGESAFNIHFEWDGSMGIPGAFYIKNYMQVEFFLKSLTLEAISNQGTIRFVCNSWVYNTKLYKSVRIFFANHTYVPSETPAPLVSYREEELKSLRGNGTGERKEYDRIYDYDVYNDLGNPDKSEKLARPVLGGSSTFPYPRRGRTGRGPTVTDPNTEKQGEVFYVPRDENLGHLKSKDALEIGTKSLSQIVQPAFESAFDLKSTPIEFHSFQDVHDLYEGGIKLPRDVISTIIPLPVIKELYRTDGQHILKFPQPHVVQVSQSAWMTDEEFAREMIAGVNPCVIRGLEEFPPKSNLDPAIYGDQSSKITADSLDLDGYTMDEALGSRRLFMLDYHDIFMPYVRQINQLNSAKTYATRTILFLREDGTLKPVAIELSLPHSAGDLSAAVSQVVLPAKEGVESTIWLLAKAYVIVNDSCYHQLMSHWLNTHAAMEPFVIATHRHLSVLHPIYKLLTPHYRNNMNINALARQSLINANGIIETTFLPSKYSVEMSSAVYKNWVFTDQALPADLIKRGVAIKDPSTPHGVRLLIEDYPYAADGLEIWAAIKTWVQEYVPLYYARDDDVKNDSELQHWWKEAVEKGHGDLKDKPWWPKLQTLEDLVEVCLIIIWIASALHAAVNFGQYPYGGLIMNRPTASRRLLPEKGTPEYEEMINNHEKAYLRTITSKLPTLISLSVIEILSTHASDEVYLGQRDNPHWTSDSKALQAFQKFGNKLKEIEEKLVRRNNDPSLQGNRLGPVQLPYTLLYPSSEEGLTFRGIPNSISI
Text: In our experiments we used soybean lipoxygenase. Designing agents to modulate activities of the variety of so closely homologous enzymes, such as different LOXs, require an intimate knowledge of their 3D structures, as well as information about metabolism of the potential xenobiotics. […] Due to lack of sufficiently-purified human enzymes most of the research has been done on soybean LOX [52, 53]. Although this enzyme is not identical to the mammalian one, it seems that there is a sufficient qualitative correlation between values for enzyme inhibition with the two enzymes.
In vitro study was evaluated as reported previously. The tested compounds as stock solutions were dissolved in DMSO. Ten microliters (10 μL) were incubated at room temperature with sodium linoleate ([…]) and 0.2 mL of enzyme solution (1/9 × 10^−4 w/v in saline) in buffer pH 9 (tris) at room temperature (final volume 1 mL). […] Several concentrations were used for the determination of IC50 values.

[5] = Inhibition of linoleic acid lipid peroxidation (AAPH)
Text: The water soluble 2,2′-azobis(2-amidinopropane) hydrochloride (AAPH) generates in vitro free radicals through spontaneous thermal decomposition. […] Overall, chalcones a, b, and c present anti-lipid peroxidation activity. […] The inhibiting activities for the rest b chalcones ranged from 15–44%. The intermediate ethers are moderate inhibitors. […] This might be correlated with the presence of the double C=C–COCH3 group. […] Both have a long ether chain in their structure.
In an aqueous solution spectrophotometrically at 234 nm the production of conjugated diene hydro peroxide by oxidation of sodium linoleate was monitored and recorded according to our previous published experimental conditions, using 10 µL of the 16 mM sodium linoleate solution added to the UV cuvette containing 930 μL of 0.05 M phosphate buffer, pH 7.4 pre-thermostated at 37 °C, under air by the addition of 50 μL of 40 mM AAPH solution, which was used as a free radical initiator. Ten microliters (10 μL) of the appropriate solutions of the tested compounds were added in the mixture, whereas same level of DMSO was used as a blank for the measurement of lipid oxidation. The rate of oxidation at 37 °C was monitored by recording the increase in absorption at 234 nm caused by conjugated diene hydro peroxides.

Row | SMILES | RA% 100 μM 20 min [1] | RA% 100 μM 60 min [1] | 1 μM Average (% pi) ± σ [2] [%] | 20 μM Average (% pi) ± σ [2] [%] | 50 μM Average (% pi) ± σ [2] [%] | 100 μM Average (% pi) ± σ [2] [%] | ABTS•+ Inhb. % @ 100 μM [3] | RM [4] | % LOX Inhb. @ 100 μM (soybean lipoxygenase) [%] | AAPH% @ 100 μM (anti-lipid peroxidation) [5] [%] | 10 μM Average (% pi) ± σ [2] [%]
1 | O=C(/C=C/c1cccs1)c1ccc(O)cc1 [a5, (E)-1-(4-hydroxyphenyl)-3-(thiophen-2-yl) prop-2-en-1-one] | 17% | 3% | 11.36 ± 0.62 | 28.32 ± 2.91 | 36.15 ± 2.33 | 36.15 ± 2.33 | No | −0.62 | 9 | 23 | 
2 | O=C(/C=C/C=C/c1ccccc1)c1ccc(O)cc1 [a7, (2E,4E)-1-(4-hydroxyphenyl)-5-phenylpenta-2,4-dien-1-one] | 19% | 6% | 6.85 ± 3.12 | 9.24 ± 6.49 | 60.95 ± 0.01 | 60.95 ± 0.01 | 12% | −0.64 | 4 | 31 | 9.27 ± 1.9
3 | CC(/C=C/C(=O)c1ccc(O)cc1)=C\c1ccccc1 [a8, (2E,4E)-1-(4-hydroxyphenyl)-4-methyl-5-phenylpenta-2,4-dien-1-one] | 6% | 2% | 1.39 ± 0.1 | 1.84 ± 2.05 | 8.15 ± 0.34 | 8.15 ± 0.34 | No | −0.68 | 14 | 32 | 2.95 ± 1.23
4 | O=C(/C=C/C(Br)=C\c1ccccc1)c1ccc(O)cc1 [a9, (2E,4E)-4-bromo-1-(4-hydroxyphenyl)-5-phenylpenta-2,4-dien-1-one] | 10% | 1% | 0.55 ± 0.09 | 2.7 ± 0.68 | 7.59 ± 0.13 | 7.59 ± 0.13 | No | −0.82 | 16 | 33 | 0.59 ± 0.83
5 | O=C(/C=C/c1ccco1)c1ccc(O)cc1 [a10, (E)-3-(furan-2-yl)-1-(4-hydroxyphenyl) prop-2-en-1-one] | 23% | 10% | 3.03 ± 0.88 | 2.39 ± 1.08 | 17.15 ± 0.32 | 17.15 ± 0.32 | 2% | −0.06 | 23 | 24 | 2.25 ± 0.38
6 | O=C(/C=C/C=C/c1ccc([N+](=O)[O-])cc1)c1ccc(O)cc1 [a11, (2E,4E)-1-(4-hydroxyphenyl)-5-(4-nitrophenyl) penta-2,4-dien-1-one] | 7% | 3% |  | 18.81 ± 2.57 | 67.84 ± 6.45 | 67.84 ± 6.45 | 14% | −1.09 | 36 | 55 | 6.26 ± 3
7 | Cc1ccc(/C=C/C(=O)c2ccc(O)cc2)o1 [a12, (E)-1-(4-hydroxyphenyl)-3-(5-methylfuran-2-yl) prop-2-en-1-one] | 24% | 9% | 0.88 ± 0.31 | 8.12 ± 0.32 | 63.54 ± 6.16 | 63.54 ± 6.16 | 6% | −0.81 | 2 | 45 | 3.25± 2.11
8 | O=C(/C=C/c1cccs1)c1ccc(OCCCOc2ccc(C(=O)/C=C/c3cccs3)cc2)cc1 [c5, (2E,2′E)-1,1′-((propane-1,3-diylbis-(oxy))bis-(4,1-phenylene)) bis-(3-(thiophen-2-yl)prop-2-en-1-one)] | No | no | 0.32 ± 0.45 | 3.02 ± 1.36 | 7.26 ± 0.3 | 7.26 ± 0.3 | No | 0.43 | 32 | 46 | 0.97 ± 0.2
